In patent publication US12215140B2, “Method of stabilizing protein contained in specimen and solution for stabilizing protein contained in specimen” (EIKEN KAGAKU KABUSHIKI KAISHA, priority 2018, dated 2025):

System: hemoglobin-haptoglobin complex
Assay: Stability of hemoglobin (as hemoglobin-haptoglobin complex) in samples preserved at 37° C. in preservation solution containing 1 unit/L haptoglobin, Hb measured by latex agglutination method (Examples 1 to 7)
Set-up: species or system human
Settings: arylboronic acid 15 mmol/L
Procedure: Preservation solutions were prepared with the addition of 40 mmol/L HEPES (pH 6.8), 0.1% BSA, 0.1% NaN3, 1 unit/L haptoglobin, and 0 to 100 mmol/L phenylboronic acid. Samples obtained by adding hemoglobin-added fecal specimens to the preservation solutions so that the fecal concentration would be 0.5% were preserved at 37° C. for 0, 7, 14, and 21 days. The fecal specimens were added with hemoglobin having an amount such that the hemoglobin concentration in the samples would be about 300 μg/L. Instead of the fecal specimens to which hemoglobin was added, samples containing no fecal specimens, in which hemoglobin was added to the preservation solutions so that the hemoglobin concentration in the samples would be 300 μg/L, were similarly preserved. The hemoglobin (Hb) concentrations (μg/L) in the preserved samples were measured by the latex agglutination method.
The concentrations of hemoglobin were measured using “OC-Hemodia (registered trademark) Auto III ‘EIKEN’” (available from EIKEN CHEMICAL CO., LTD.) as a measurement reagent and “OC-sensor DIANA” (available from EIKEN CHEMICAL CO., LTD.) as a measurement device. The above measurement reagent contains latex particles immobilizing an anti-human hemoglobin rabbit polyclonal antibody.
From the measured concentrations of hemoglobin, the recovery ratios (%) were calculated with respect to the hemoglobin concentrations immediately after the fecal specimens were added to the preservation solutions (i.e., concentrations 0 days after the fecal specimens were added).
(§1) For comparative examples, preservation solutions to which no arylboronic acid was added were prepared, and testing was conducted in the same manner.
(§2) The concentration of phenylboronic acid in the preservation solutions of Example 1 was fixed to 15 mmol/L, preservation solutions to which a sugar (sorbitol, sucrose, trehalose, glucose, fructose, or mannitol) was further added at 50 mmol/L or 100 mmol/L or preservation solutions to which no sugar was added were prepared, and testing was conducted in the same manner as in Example 1. For comparative examples, preservation solutions to which the phenylboronic acid and sugar were not added were prepared, and testing was conducted in the same manner.
Preservation solutions in which sorbitol, sucrose, trehalose, glucose, fructose, or mannitol was added at 100 mmol/L to the preservation solutions of Example 1 containing no phenylboronic acid were prepared, and testing was conducted in the same manner as in Example 1. For comparison, the same testing was conducted without adding these sugars.
as §2, with “sorbitol” for “a sugar (sorbitol, sucrose, trehalose, glucose, fructose, or mannitol)”, “was” for “was further”, “10 to 500” for “50”, “sucrose was added at 10 to 250” for “100”
as §1

[1] = Feces 1, sugar (if added) 100 mmol/L, 0 days at 37° C.
[2] = Feces 1, sugar (if added) 100 mmol/L, 7 days at 37° C.
[3] = Feces 1, sugar (if added) 100 mmol/L, 14 days at 37° C.
[4] = Feces 2, sugar (if added) 100 mmol/L, 0 days at 37° C.
[5] = Feces 2, sugar (if added) 100 mmol/L, 7 days at 37° C.
[6] = Feces 2, sugar (if added) 100 mmol/L, 14 days at 37° C.
[7] = Feces 3, sugar (if added) 100 mmol/L, 0 days at 37° C.
[8] = Feces 3, sugar (if added) 100 mmol/L, 7 days at 37° C.
[9] = Feces 3, sugar (if added) 100 mmol/L, 14 days at 37° C.
[10] = No feces, sugar (if added) 100 mmol/L, 0 days at 37° C.
[11] = No feces, sugar (if added) 100 mmol/L, 7 days at 37° C.
[12] = No feces, sugar (if added) 100 mmol/L, 14 days at 37° C.

OB(O)c1cccc(O)c1 [3H-PBA, 3-hydroxyphenylboronic acid]
Hb concentration [1]: 327 µg/L | Recovery ratio with respect to Hb after 0 days [1]: 100% | Hb concentration [2]: 269 µg/L | Recovery ratio with respect to Hb after 0 days [2]: 82% | Hb concentration [3]: 268 µg/L | Recovery ratio with respect to Hb after 0 days [3]: 82% | Hb concentration (Feces 1, 37° C., 0 days): 327 µg/L | Recovery ratio with respect to Hb after 0 days (Feces 1, 37° C., 0 days): 100% | Hb concentration (Feces 1, 37° C., 7 days): 269 µg/L | Recovery ratio with respect to Hb after 0 days (Feces 1, 37° C., 7 days): 82% | Hb concentration (Feces 1, 37° C., 14 days): 268 µg/L | Recovery ratio with respect to Hb after 0 days (Feces 1, 37° C., 14 days): 82% | Hb concentration [4]: 326 µg/L | Recovery ratio with respect to Hb after 0 days [4]: 100% | Hb concentration [5]: 277 µg/L | Recovery ratio with respect to Hb after 0 days [5]: 85% | Hb concentration [6]: 264 µg/L | Recovery ratio with respect to Hb after 0 days [6]: 81% | Hb concentration (Feces 2, 37° C., 0 days): 326 µg/L | Recovery ratio with respect to Hb after 0 days (Feces 2, 37° C., 0 days): 100% | Hb concentration (Feces 2, 37° C., 7 days): 227 µg/L | Recovery ratio with respect to Hb after 0 days (Feces 2, 37° C., 7 days): 85% | Hb concentration (Feces 2, 37° C., 14 days): 264 µg/L | Recovery ratio with respect to Hb after 0 days (Feces 2, 37° C., 14 days): 81% | Hb concentration [7]: 313 µg/L | Recovery ratio with respect to Hb after 0 days [7]: 100% | Hb concentration [8]: 213 µg/L | Recovery ratio with respect to Hb after 0 days [8]: 68% | Hb concentration [9]: 206 µg/L | Recovery ratio with respect to Hb after 0 days [9]: 66% | Hb concentration (Feces 3, 37° C., 0 days): 313 µg/L | Recovery ratio with respect to Hb after 0 days (Feces 3, 37° C., 0 days): 100% | Hb concentration (Feces 3, 37° C., 7 days): 213 µg/L | Recovery ratio with respect to Hb after 0 days (Feces 3, 37° C., 7 days): 68% | Hb concentration (Feces 3, 37° C., 14 days): 206 µg/L | Recovery ratio with respect to Hb after 0 days (Feces 3, 37° C., 14 days): 66% | Hb concentration [10]: 303 µg/L | Recovery ratio with respect to Hb after 0 days [10]: 100% | Hb concentration [11]: 294 µg/L | Recovery ratio with respect to Hb after 0 days [11]: 97% | Hb concentration [12]: 296 µg/L | Recovery ratio with respect to Hb after 0 days [12]: 98% | Hb concentration (No feces, 37° C., 0 days): 303 µg/L | Recovery ratio with respect to Hb after 0 days (No feces, 37° C., 0 days): 100% | Hb concentration (No feces, 37° C., 7 days): 294 µg/L | Recovery ratio with respect to Hb after 0 days (No feces, 37° C., 7 days): 97% | Hb concentration (No feces, 37° C., 14 days): 296 µg/L | Recovery ratio with respect to Hb after 0 days (No feces, 37° C., 14 days): 98%

O=C(O)c1cccc(B(O)O)c1 [3C-PBA, 3-carboxyphenylboronic acid]
Hb concentration [1]: 309 µg/L | Recovery ratio with respect to Hb after 0 days [1]: 100% | Hb concentration [2]: 249 µg/L | Recovery ratio with respect to Hb after 0 days [2]: 81% | Hb concentration [3]: 239 µg/L | Recovery ratio with respect to Hb after 0 days [3]: 77% | Hb concentration (Feces 1, 37° C., 0 days): 309 µg/L | Recovery ratio with respect to Hb after 0 days (Feces 1, 37° C., 0 days): 100% | Hb concentration (Feces 1, 37° C., 7 days): 249 µg/L | Recovery ratio with respect to Hb after 0 days (Feces 1, 37° C., 7 days): 81% | Hb concentration (Feces 1, 37° C., 14 days): 239 µg/L | Recovery ratio with respect to Hb after 0 days (Feces 1, 37° C., 14 days): 77% | Hb concentration [4]: 309 µg/L | Recovery ratio with respect to Hb after 0 days [4]: 100% | Hb concentration [5]: 264 µg/L | Recovery ratio with respect to Hb after 0 days [5]: 85% | Hb concentration [6]: 240 µg/L | Recovery ratio with respect to Hb after 0 days [6]: 78% | Hb concentration (Feces 2, 37° C., 0 days): 309 µg/L | Recovery ratio with respect to Hb after 0 days (Feces 2, 37° C., 0 days): 100% | Hb concentration (Feces 2, 37° C., 7 days): 264 µg/L | Recovery ratio with respect to Hb after 0 days (Feces 2, 37° C., 7 days): 85% | Hb concentration (Feces 2, 37° C., 14 days): 240 µg/L | Recovery ratio with respect to Hb after 0 days (Feces 2, 37° C., 14 days): 78% | Hb concentration [7]: 300 µg/L | Recovery ratio with respect to Hb after 0 days [7]: 100% | Hb concentration [8]: 213 µg/L | Recovery ratio with respect to Hb after 0 days [8]: 71% | Hb concentration [9]: 200 µg/L | Recovery ratio with respect to Hb after 0 days [9]: 67% | Hb concentration (Feces 3, 37° C., 0 days): 300 µg/L | Recovery ratio with respect to Hb after 0 days (Feces 3, 37° C., 0 days): 100% | Hb concentration (Feces 3, 37° C., 7 days): 213 µg/L | Recovery ratio with respect to Hb after 0 days (Feces 3, 37° C., 7 days): 71% | Hb concentration (Feces 3, 37° C., 14 days): 200 µg/L | Recovery ratio with respect to Hb after 0 days (Feces 3, 37° C., 14 days): 67% | Hb concentration [10]: 293 µg/L | Recovery ratio with respect to Hb after 0 days [10]: 100% | Hb concentration [11]: 281 µg/L | Recovery ratio with respect to Hb after 0 days [11]: 96% | Hb concentration [12]: 276 µg/L | Recovery ratio with respect to Hb after 0 days [12]: 94% | Hb concentration (No feces, 37° C., 0 days): 293 µg/L | Recovery ratio with respect to Hb after 0 days (No feces, 37° C., 0 days): 100% | Hb concentration (No feces, 37° C., 7 days): 281 µg/L | Recovery ratio with respect to Hb after 0 days (No feces, 37° C., 7 days): 96% | Hb concentration (No feces, 37° C., 14 days): 276 µg/L | Recovery ratio with respect to Hb after 0 days (No feces, 37° C., 14 days): 94%
